Test system: AhR
Assay: Receptor capture assay, end-point PCR with anti-DIG time-resolved fluorescence detection, Hepa 1c1c7 cell extract
Format: biochemical, murine
Experimental: End-point PCR may also be utilized for dioxins. Calibrators containing 10, 100, 1000 fmol of 2,3,7,8-tetrachlorodibenzo-p-dioxin (TCDD) were prepared and 1 μl of each calibrator was dispensed into a glass test tube.
An extract from Hepa 1c1c7 cells was prepared as described by Example 1 to provide AhR for the assays. 100 μl NEAT to 0.5 μl of Hepa 1c1c7 cell extract diluted in Assay Buffer was added to each tube, thoroughly mixed, and the tubes were capped, or covered with Parafilm™. The samples were then incubated at room temperature to 37° C. for 30 min to 2 hr. Salt and salmon sperm DNA was then added to the AhR reaction medium in concentrations of 50 mM to 200 mM and 5 to 100 μg/ml, respectively. The samples were then incubated for a period ranging from 0-20 minutes at room temperature. Nucleic acid-tracer (1 nM) was added and mixed gently to allow complex formation between activated AhR and nucleic acid-tracer, where TCCD was present. The reaction tubes were incubated for a time ranging from 10 min to 1 hour, at room temperature.
Capture Strips coated with anti-ARNT antibody were prepared as described in Example 1. An aliquot of AhR reaction medium (25 to 100 μl) from each glass tube was then transferred to a corresponding well of the Capture Strip. The Capture Strips were incubated for an additional 30 min to 1 hour at room temperature, with shaking. Unbound nucleic acid-tracer was rigorously removed by washing wells five times with Wash Buffer B, optionally soaking wells for 30 sec-5 min with wash buffer during each cycle. The strips may be shaken during the soak step if desired. The strips were washed twice with water, with all liquids aspirated at the finish.
The nucleic acid-tracer remaining in the Capture Strip was PCR amplified by the following method: A PCR Master Mix was assembled with the following final concentrations: 1×PCR buffer with 1.5 mM MgCl2, 0.2 mM dATP, dCTP, dGTP, 0.15 mM dTTP, 0.05 mM DIG-dUTP (Roche, Indianapolis, Ind.), 0.5 μM each primer (PRI 1A and PRI 1B), […] Taq polymerase. The Master Mix was aliquoted 30-50 μl per well, then tape applied to seal the wells. The thermocycler profile was: 94° C., 20 sec, 15 cycles of [94° C., 30 sec, 52° C., 30 sec, 72° C. 30 sec], then 72° C., 30 sec and chilled to 4° C.
Ten μl of PCR sample was assayed by ELISA-PCR with anti-DIG detection as follows.
The PCR sample was diluted to 30 μl with water in 0.2 ml tube. The sample was heated 95° C. for 3-5 min. The immobilization (capture) probe was:
The probe was diluted to 10 nM in Hybridization Buffer (0.5× Assay Buffer, 0.5 M NaCl). The probe (100 μl=1 pmol) was then added to the hot samples, mixed, and incubated at 37° C. for 45 min.
The sample was transferred to a pre-washed streptavidin-coated microtiter wells in the form of strips or plates obtained from DELFIA catalog number 4009-0010 (Wallac, Finland) and shaken for 45 min. at room temperature. Strips or plates were washed three times with Wallac Wash Buffer (DELFIA wash concentrate, catalog number 13800865, Wallac, Finland). The Wallac Wash Buffer (1×) for the automated plate washer was made from 25× Wash Concentrate (Wallac), which contains Tris, NaCl, and TWEEN-20.
Anti-DIG antibody (Sigma Chemical Co, St. Louis, Mo.) was diluted 1/1000 in Assay Buffer and 100 μl added to each well, and strips were shaken for 30 min. […] Samples were counted on a Victor 2 multilabel counter/plate reader (catalog number 1420-012, Wallac, Finland) using time-resolved fluorescence. […]

| SMILES | DNA signal over DMSO control (BNF in DMSO added to Hepa 1c1c7 cell extract) | Counts (time-resolved fluorescence) (TCDD 1 fmol) | Counts (time-resolved fluorescence) (TCDD 10 fmol) | Counts (time-resolved fluorescence) (TCDD 100 fmol) | Counts (time-resolved fluorescence) (TCDD 1000 fmol) |
| --- | --- | --- | --- | --- | --- |
| O=c1cc(-c2ccccc2)oc2ccc3ccccc3c12 [BNF, beta-naphthoflavone] | significantly and reproducibly increased the DNA signal | – | – | – | – |
| Clc1cc2c(cc1Cl)Oc1cc(Cl)c(Cl)cc1O2 [TCDD, 2,3,7,8-tetrachlorodibenzo-p-dioxin] | – | 5770 | 17287 | 100645 | 504879 |
